For 25 molecules, IC50, Activity and inhibition results are on record in ChEMBL document CHEMBL5042497, “Design, synthesis, and biological evaluation of carbamate derivatives of N-salicyloyl tryptamine as multifunctional agents for the treatment of Alzheimer's disease” (Eur J Med Chem, 2022).

The target in assay [1] is Acetylcholinesterase (Electrophorus electricus, UniProt O42275). Put plainly: Inhibition of electric eel AChE using acetylthiocholine iodide as substrate preincubated for 10 mins followed by substrate addition and measured for 15 mins by Ellman's method. In general terms: DTNB colorimetry detects thiols as they appear.
For assay [2], the system named is HT-22. Kind of assay: cells. Type of assay: functional, cell-based. The note with it: Mus musculus, HT-22, 24 h.
Description: Cytotoxicity against mouse HT-22 cells assessed as reduction in cell viability measured after 24 hrs by MTT assay
The test system of assay [3] is BV-2. Kind of assay: cells. Type of assay: functional, cell-based. The note with it: Mus musculus, BV-2, 24 h.
Description: Cytotoxicity against mouse BV-2 cells assessed as reduction in cell viability measured after 24 hrs by MTT assay
The target of assay [4] is Cholinesterase (Equus caballus, UniProt P81908). Kind of assay: Inhibition of equine serum BChE using butyrylthiocholine iodide as substrate preincubated for 10 mins followed by substrate addition and measured after 15 mins by Ellman's method.
Assay [5] addresses Acetylcholinesterase (Homo sapiens, UniProt P22303). Kind of assay: Inhibition of AChE (unknown origin).
The subject of assay [6] is Mus musculus. Kind of assay: Anti-alzheimer activity against scopolamine-induced cognitive dysfunction mouse model assessed as change in neuron damage in hippocampal CA1 region at 50 to 100 mg/kg, po measured after 10 days by Nissl staining based assay. Type of assay: functional, organism-based. As to conditions: Hippocampus, dose 50-100 mg/kg, time 10.0 day.
Assay [7] concerns BV-2. Kind of assay: Anti-neuroinflammation in mouse BV-2 cells assessed as inhibition of LPS-induced NO production at 100 to 3.125 umol/L measured after 24 hrs by Griess method. Type of assay: functional, cell-based. The note with it: dose 100-3.125 µmol/L. (In general: Griess reagent forms a coloured azo dye with nitrite.)
In assay [8] the target is Amyloid-beta precursor protein (Homo sapiens) (UniProt P05067). Put plainly: Inhibition of amyloid beta (1 to 42 ) (unknown origin) aggregation at 20 umol/L incubated for 24 hrs by thioflavin-T fluorescence method relative to control. The note with it: dose 20.0 µmol/L.
The subject of assay [9] is BV-2. Put plainly: Anti-neuroinflammation in mouse BV-2 cells assessed as decrease in LPS-induced TNF-alpha production at 12.5 umol/L measured after 24 hrs by ELISA. Type of assay: functional, cell-based. As to conditions: dose 12.5 µmol/L. For orientation: An ELISA detects its analyte on a solid surface through an enzyme-linked reagent.
For assay [10], the system named is BV-2. Kind of assay: Anti-neuroinflammation in mouse BV-2 cells assessed as decrease in LPS-induced IL-6 production at 12.5 umol/L measured after 24 hrs by ELISA. Type of assay: functional, cell-based. The note with it: dose 12.5 µmol/L.
In assay [11] the test system is Mus musculus. Put plainly: Anti-alzheimer activity against scopolamine-induced cognitive dysfunction mouse model assessed as change in neuron damage in hippocampal CA3 region at 50 to 100 mg/kg, po measured after 10 days by Nissl staining based assay. Type of assay: functional, organism-based. The note with it: Hippocampus, dose 50-100 mg/kg, time 10.0 day.
Assay [12] deals with BV-2. Put plainly: Anti-neuroinflammation in mouse BV-2 cells assessed as decrease in LPS-induced iNOS activity at 12.5 umol/L by fluorescence based assay. The note with it: dose 12.5 µmol/L. Type of assay: functional, cell-based.
Assay [13] deals with Mus musculus. Kind of assay: Anti-alzheimer activity against scopolamine-induced cognitive dysfunction mouse model assessed as […] of AChE activity in hippocampus at 50 to 100 mg/kg, po dosed for 10 days by colorimetric analysis. Type of assay: functional, organism-based. The note with it: dose 50-100 mg/kg, time 10.0 day.
Assay [14] addresses Cholinesterase (Homo sapiens, UniProt P06276). Put plainly: Inhibition of BuChE (unknown origin).
Assay [15] relates to Mus musculus. Kind of assay: Anti-alzheimer activity against scopolamine-induced cognitive dysfunction mouse model assessed as […] of AChE activity in hippocampus at 5 mg/kg, po measured after 10 days by colorimetric analysis. Type of assay: functional, organism-based. As to conditions: time 10.0 day.
Assay [16] has as its system BV-2. Put plainly: Anti-neuroinflammation in mouse BV-2 cells assessed as decrease in LPS-induced IL-6 production at 1.25 umol/L measured after 24 hrs by ELISA. Type of assay: functional, cell-based. The note with it: dose 1.25 µmol/L.
Assay [17] relates to BV-2. Put plainly: Anti-neuroinflammation in mouse BV-2 cells assessed as decrease in LPS-induced iNOS activity at 1.25 umol/L by fluorescence based assay. Type of assay: functional, cell-based. The note with it: dose 1.25 µmol/L.
Assay [18] deals with Mus musculus. Put plainly: Anti-alzheimer activity against scopolamine-induced cognitive dysfunction mouse model assessed as change in neuron damage in hippocampal CA1 region at 5 mg/kg, po measured after 10 days by Nissl staining based assay. Type of assay: functional, organism-based. As to conditions: time 10.0 day.
In assay [19] the test system is BV-2. Kind of assay: Anti-neuroinflammation in mouse BV-2 cells assessed as decrease in LPS-induced TNF-alpha production at 1.25 umol/L measured after 24 hrs by ELISA. Type of assay: functional, cell-based. The note with it: dose 1.25 µmol/L.
For assay [20], the system named is Mus musculus. Put plainly: Anti-alzheimer activity against scopolamine-induced cognitive dysfunction mouse model assessed as change in neuron damage in hippocampal CA3 region at 5 mg/kg, po measured after 10 days by Nissl staining based assay. As to conditions: time 10.0 day. Type of assay: functional, organism-based.

Calls of active or inactive are those of the source. No cut-off for these calls is given here.

Sequence of Acetylcholinesterase (Homo sapiens, UniProt P22303) (P22303 whole entry): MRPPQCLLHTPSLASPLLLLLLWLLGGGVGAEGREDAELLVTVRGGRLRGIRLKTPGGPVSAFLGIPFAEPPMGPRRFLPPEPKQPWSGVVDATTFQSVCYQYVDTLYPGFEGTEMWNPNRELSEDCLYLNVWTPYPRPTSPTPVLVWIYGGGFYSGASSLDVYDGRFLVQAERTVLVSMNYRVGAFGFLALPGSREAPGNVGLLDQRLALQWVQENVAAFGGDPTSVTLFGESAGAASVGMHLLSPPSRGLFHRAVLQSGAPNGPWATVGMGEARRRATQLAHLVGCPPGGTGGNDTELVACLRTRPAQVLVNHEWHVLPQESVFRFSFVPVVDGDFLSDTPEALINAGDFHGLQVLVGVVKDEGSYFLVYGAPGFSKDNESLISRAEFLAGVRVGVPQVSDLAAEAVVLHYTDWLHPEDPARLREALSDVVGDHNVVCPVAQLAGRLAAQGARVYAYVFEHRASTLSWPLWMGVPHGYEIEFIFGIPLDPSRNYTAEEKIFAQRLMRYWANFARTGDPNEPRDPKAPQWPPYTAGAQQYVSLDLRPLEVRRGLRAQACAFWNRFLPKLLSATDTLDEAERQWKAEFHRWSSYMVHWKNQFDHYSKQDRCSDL
Sequence of Cholinesterase (Equus caballus, UniProt P81908) (P81908 whole entry): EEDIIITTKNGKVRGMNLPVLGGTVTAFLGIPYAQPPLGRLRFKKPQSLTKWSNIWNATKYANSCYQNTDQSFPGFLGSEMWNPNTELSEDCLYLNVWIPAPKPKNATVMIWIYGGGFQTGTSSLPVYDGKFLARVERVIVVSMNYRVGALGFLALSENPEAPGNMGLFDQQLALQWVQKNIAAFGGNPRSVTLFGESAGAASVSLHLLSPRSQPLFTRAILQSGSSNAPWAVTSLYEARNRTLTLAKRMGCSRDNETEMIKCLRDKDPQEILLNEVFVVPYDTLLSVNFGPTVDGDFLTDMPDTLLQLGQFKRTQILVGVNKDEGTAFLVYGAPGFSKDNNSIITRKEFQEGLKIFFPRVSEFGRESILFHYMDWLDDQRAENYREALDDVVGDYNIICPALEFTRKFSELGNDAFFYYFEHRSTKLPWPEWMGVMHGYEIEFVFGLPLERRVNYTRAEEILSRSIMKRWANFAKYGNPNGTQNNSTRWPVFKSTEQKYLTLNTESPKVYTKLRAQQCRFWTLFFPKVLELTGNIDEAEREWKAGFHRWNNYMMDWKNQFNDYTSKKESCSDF
Sequence of Acetylcholinesterase (Electrophorus electricus, UniProt O42275) (O42275 whole entry): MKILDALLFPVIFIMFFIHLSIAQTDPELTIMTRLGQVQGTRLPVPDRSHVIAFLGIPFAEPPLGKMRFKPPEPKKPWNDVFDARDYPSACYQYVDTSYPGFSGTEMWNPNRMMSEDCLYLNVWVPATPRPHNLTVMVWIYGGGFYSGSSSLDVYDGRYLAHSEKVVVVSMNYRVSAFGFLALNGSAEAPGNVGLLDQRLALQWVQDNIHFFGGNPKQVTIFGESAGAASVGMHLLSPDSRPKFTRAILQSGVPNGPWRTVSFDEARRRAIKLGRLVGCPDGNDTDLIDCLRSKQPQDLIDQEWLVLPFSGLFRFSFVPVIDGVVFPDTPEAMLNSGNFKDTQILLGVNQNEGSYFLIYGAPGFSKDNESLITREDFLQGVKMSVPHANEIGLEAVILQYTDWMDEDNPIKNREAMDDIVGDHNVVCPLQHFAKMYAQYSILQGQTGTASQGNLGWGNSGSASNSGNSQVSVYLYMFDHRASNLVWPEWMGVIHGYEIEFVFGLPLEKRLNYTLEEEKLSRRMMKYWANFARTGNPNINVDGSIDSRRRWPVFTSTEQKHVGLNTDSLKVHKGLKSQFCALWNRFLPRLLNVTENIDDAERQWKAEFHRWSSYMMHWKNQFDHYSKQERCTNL
Sequence of Cholinesterase (Homo sapiens, UniProt P06276) (P06276 whole entry): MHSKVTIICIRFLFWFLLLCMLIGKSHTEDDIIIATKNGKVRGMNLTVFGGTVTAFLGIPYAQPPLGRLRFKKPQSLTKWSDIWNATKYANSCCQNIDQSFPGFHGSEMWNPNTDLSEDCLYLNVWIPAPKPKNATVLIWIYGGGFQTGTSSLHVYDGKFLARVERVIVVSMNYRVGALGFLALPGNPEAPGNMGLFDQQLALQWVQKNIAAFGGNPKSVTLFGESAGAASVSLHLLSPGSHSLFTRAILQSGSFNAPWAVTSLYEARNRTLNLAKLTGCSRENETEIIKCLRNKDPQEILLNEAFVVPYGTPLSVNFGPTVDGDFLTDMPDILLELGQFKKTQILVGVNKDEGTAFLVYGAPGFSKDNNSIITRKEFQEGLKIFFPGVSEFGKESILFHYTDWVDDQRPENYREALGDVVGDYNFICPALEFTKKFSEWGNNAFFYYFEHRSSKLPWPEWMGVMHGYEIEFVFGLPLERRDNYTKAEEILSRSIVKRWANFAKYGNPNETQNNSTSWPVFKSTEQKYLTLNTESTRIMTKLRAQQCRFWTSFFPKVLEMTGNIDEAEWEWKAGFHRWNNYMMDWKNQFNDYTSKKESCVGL
Sequence of Amyloid-beta precursor protein (Homo sapiens) (P05067 whole entry): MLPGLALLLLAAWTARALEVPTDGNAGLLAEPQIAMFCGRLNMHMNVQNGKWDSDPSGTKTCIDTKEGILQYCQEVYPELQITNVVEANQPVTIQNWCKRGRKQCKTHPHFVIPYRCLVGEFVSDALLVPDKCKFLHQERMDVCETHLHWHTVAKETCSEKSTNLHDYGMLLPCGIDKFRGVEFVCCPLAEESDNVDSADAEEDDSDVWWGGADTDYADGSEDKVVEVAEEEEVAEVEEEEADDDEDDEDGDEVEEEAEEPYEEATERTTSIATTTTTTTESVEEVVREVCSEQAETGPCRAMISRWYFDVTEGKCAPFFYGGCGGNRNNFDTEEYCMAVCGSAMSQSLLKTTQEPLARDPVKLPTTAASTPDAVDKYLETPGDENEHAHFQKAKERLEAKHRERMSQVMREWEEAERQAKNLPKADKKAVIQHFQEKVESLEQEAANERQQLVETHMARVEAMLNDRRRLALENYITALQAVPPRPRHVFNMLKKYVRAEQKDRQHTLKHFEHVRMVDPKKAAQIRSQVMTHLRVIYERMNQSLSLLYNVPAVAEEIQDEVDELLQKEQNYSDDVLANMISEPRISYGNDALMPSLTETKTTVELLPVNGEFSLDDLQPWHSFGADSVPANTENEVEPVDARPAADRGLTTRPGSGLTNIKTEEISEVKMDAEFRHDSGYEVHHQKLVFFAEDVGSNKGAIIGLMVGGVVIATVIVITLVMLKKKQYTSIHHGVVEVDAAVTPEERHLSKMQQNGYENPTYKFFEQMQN

`CN(C(=O)Oc1ccccc1C(=O)NCCc1c[nH]c2ccccc12)c1ccccc1`: the IC50 in assay [1] is greater than 100 µM; in [2], 48.5 µM; in [3] it was 20.6 µM; in [4], 29.7 µM.
With `CN(C)C(=O)Oc1ccccc1C(=O)NCCc1c[nH]c2ccccc12`, the IC50 was determined as 16.7 µM in assay [1], 75.4 µM in assay [2], 35.2 µM in [3] and 3.95 µM in assay [4].
Regarding `CON(C)C(=O)Oc1cccc(C(=O)NCCc2c[nH]c3ccccc23)c1`, the IC50 in assay [1] is greater than 100 µM; in assay [2], 48.3 µM; in [3], 12.4 µM; in [4], 1.27 µM.
The like results for `CCCN(CCC)C(=O)Oc1ccccc1C(=O)NCCc1c[nH]c2ccccc12` were, in that order, 37.2 µM, 25.4 µM, 0.33 µM and 35.8 µM.
For the molecule `CN1CC[C@@]2(C)c3cc(OC(=O)Nc4ccccc4)ccc3N(C)[C@@H]12` [PHENSERINE], in assay [5], the IC50 was found to be 1.56 µM.
As to `O=C(NCCc1c[nH]c2ccccc12)c1ccccc1OC(=O)N1CCCCCC1`, the IC50 in assay [1] is greater than 100 µM; in [2], 25.1 µM; in assay [3], 32.7 µM; in assay [4], 24.1 µM.
Turning to `O=C(NCCc1c[nH]c2ccccc12)c1ccccc1OC(=O)N1CCCC1`, the IC50 in assay [1] was greater than 100 µM; in assay [2], 64.3 µM; in assay [3], 56 µM; in [4] it was 1.2 µM.
For `O=C(NCCc1c[nH]c2ccccc12)c1ccccc1O`, the outcome in assay [6], in assay [7], in [9], in assay [10], in assay [11] and in assay [12] was Active. Further, in [13], the outcome was Active. Further, the IC50 in [1] was 23.2 µM; in [2], 101 µM; in assay [3], 26.8 µM; in [4], 15.9 µM. Also, the inhibition in assay [8] was determined as 19.6%.
The molecule `CNC(=O)Oc1ccc2c(c1)[C@]1(C)CCOC1N2C` (stereo partly specified) yielded an IC50 in assay [5] of 0.004 µM.
Consider `O=C(NCCc1c[nH]c2ccccc12)c1ccccc1OC(=O)N1CCSCC1`, for which the IC50 in [1] is greater than 100 µM; in [2], greater than 100 µM; in assay [3] it was 1.53 µM; in assay [4], 1.44 µM.
Turning to `O=C(NCCc1c[nH]c2ccccc12)c1ccccc1OC(=O)N1CCCCC1`, the IC50 in assay [1] is greater than 100 µM; in assay [2] it was 24.4 µM; in assay [3], 32.8 µM; in [4] it was greater than 100 µM.
`CON(C)C(=O)Oc1ccc(C(=O)NCCc2c[nH]c3ccccc23)cc1`: the IC50 is 3.11 µM in assay [1], greater than 100 µM in assay [2], 30.3 µM in assay [3] and 6.61 µM in [4].
The matching figures for `O=C(NCCc1c[nH]c2ccccc12)c1ccccc1OC(=O)N1CCOCC1`: greater than 100 µM, 97.7 µM, 82.8 µM and 10 µM.
Regarding `CCNC(=O)Oc1ccc2c(c1)[C@]1(C)CCOC1O2` (stereo partly specified), the IC50 in assay [14] and in [5] was 0.006 µM each time.
`O=S1(=O)OC(c2ccc(O)cc2)(c2ccc(O)cc2)c2ccccc21` came in with an inhibition in [8] of 34.8%.
Take `CCN(CC)C(=O)Oc1ccccc1C(=O)NCCc1c[nH]c2ccccc12`: the half-maximal inhibitory concentration (IC50) in assay [1] came out at 68.5 µM; in assay [2], 57.2 µM; in assay [3], 32.1 µM; in assay [4] it was 14 µM.
The matching figures for `O=C(NCCc1c[nH]c2ccccc12)c1ccccc1OC(=O)N(c1ccccc1)c1ccccc1`: greater than 100 µM, greater than 100 µM, 126 µM and 4.73 µM.
The matching figures for `O=C(NCCc1c[nH]c2ccccc12)c1ccccc1OC(=O)N1CCC1`: greater than 100 µM, 40.1 µM, 33.3 µM and 17 µM.
Turning to `CN1c2ccc(OC(=O)NCC3CCCCC3)cc2[C@]2(C)CCN(CCc3ccccc3)[C@H]12`, the IC50 in [14] and in assay [5] was 0.0018 µM throughout.
`O=C(NCCc1c[nH]c2ccccc12)c1ccccc1OC(=O)N1CCc2ccccc21`: the IC50 is greater than 100 µM in [1], greater than 100 µM in [2], 137 µM in [3] and 30 µM in assay [4].
`O=C(NCCc1c[nH]c2ccccc12)c1ccccc1OC(=O)N(Cc1ccccc1)Cc1ccccc1`: the IC50 in assay [1] was greater than 100 µM; in assay [2] it was greater than 100 µM; in assay [3], 137 µM; in assay [4], 15.4 µM.
In [14], `CC(C)c1ccc(NC(=O)Oc2ccc3c(c2)[C@]2(C)CCOC2O3)cc1` (stereo partly specified) returned an IC50 of 0.027 µM.
On to `CCCCN(CCCC)C(=O)Oc1ccccc1C(=O)NCCc1c[nH]c2ccccc12`, for which the IC50 came out at 34.9 µM in [1], 12.8 µM in assay [2], 116 µM in [3] and 8.01 µM in [4].
As for `COc1cc2c(cc1OC)C(=O)C(CC1CCN(Cc3ccccc3)CC1)C2` (stereo unspecified) [DONEPEZIL], the result in [15], in assay [16], in assay [17], in [18], in assay [19] and in [20] was Active. The IC50 in [2] came out at 56.4 µM; in assay [3], 1.54 µM.
Take `CN1CCN(C(=O)Oc2ccccc2C(=O)NCCc2c[nH]c3ccccc23)CC1`: the IC50 was found to be 66 µM in assay [1], 92.7 µM in assay [2], 49.7 µM in [3] and 5.14 µM in assay [4].

One may read the IC50 as the concentration that gives 50% inhibition. Higher therefore signals weaker potency. The inhibition is how much of the control response was suppressed.
